# Entries after “also recorded” stand apart in the source; their conditions may differ.
# Assays:
# HCoV-229E = type: cell-based
# SARS-CoV-2 [1] = test: Viral load reduction assay in Calu-3 cells, extracellular viral RNA copies by RT-qPCR; type: cell-based; conditions: Calu-3, MOI 1, 16 hpi
# Procedure: (§1) Cells were pretreated with 11 and infected with SARS-CoV-2 at a multiplicity of infection (MOI) of 1. At 16 h postinfection (hpi) supernatant was harvested to quantify the infectious virus titer by plaque assay and extracellular viral RNA copies by RT-qPCR. […] This is in line with the expected mechanism of action of the compound that involves viral (structural) protein maturation, likely resulting in reduced infectivity of progeny virus. We then calculated the specific infectivity (defined as the number of infectious particles per viral RNA copy) of treated and untreated samples for the data in Figure 3A,B (Figure 3C). […] None of the treatments caused noticeable cytotoxicity in uninfected treated cells (Figure 3B). Similarly, treatment of infected Calu-3 lung epithelial cells with 11 reduced infectious progeny virus titers by ∼10-fold, while no reduction in extracellular viral RNA copies was observed (Figure S3).
# (§2) Figure S2: Cytopathic effect reduction assays on Vero E6 monkey kidney cells and H1299/ACE2 human lung epithelial cells. […]
# (§3) plaque assay and RT-qPCR, respectively. Uninfected compound-treated cells were assessed by MTS assay in parallel to measure cytotoxicity of the compounds. n=3 independent experiments. […]
# GCS = tested on: GCS; design: method as in PMID 28776021; conditions: cited from earlier work
# SARS-CoV-2 [2] = test: Viral load reduction assay in Calu-3 cells, infectious virus titer by plaque assay; type: cell-based
# Procedure: as §1, §2, §3
# SARS-CoV-2 [3] = test: CPE reduction assay on H1299/ACE2 lung epithelial cells; type: cell-based; conditions: compared with Vero E6
# SARS-CoV-2 S protein = type: cell-based
# GBA1 = conditions: cited from earlier work
smiles,measurement,setting,value
"O=S1(=O)O[C@@H]2[C@H](O)[C@@H](O)[C@H](O)[C@@H](CO)[C@@H]2O1 [Compound 11, 1,6-epi-cyclophellitol cyclosulfate]",virus infectivity of HCoV-229E (in words),HCoV-229E,did not show any reduction in virus infectivity
same,extracellular viral RNA copies (in words),SARS-CoV-2 [1],no reduction
same,inhibition of GCS,GCS,does not inhibit
same,reduction of infectious virus titers,"SARS-CoV-2 [2]; Calu-3, 0.5–1.6 μM",up to 2 logs
same,reduction of infectious progeny virus titers,"SARS-CoV-2 [2]; Calu-3, MOI 1, 16 hpi",~10 fold
same,EC50 values in CPE reduction assay (in words),SARS-CoV-2 [3],comparable EC50 values
same,(processed) S2 in the medium,SARS-CoV-2 S protein,strongly reduced
same,full-length S protein in the cell lysate,SARS-CoV-2 S protein,minor reduction
same,∼90 kDa S2 fragment in the cell lysate,SARS-CoV-2 S protein,almost complete disappearance
same,inhibition of GBA1,GBA1,completely inactive; also recorded: does not inhibit

# Reference: paper PMC11363342 (ACS Central Science, 2024)
